A short description of data set [1]: NO release in PBS versus rat plasma (Griess reaction). The conditions noted are these: 100 μM in PBS versus rat plasma, 37° C., readings at 0 minutes, 30 minutes, 3 hours; classified and ranked on NO release behavior. It is filed as in vitro ADME. Here is the method: The compounds were dissolved in DMSO and added to PBS and then incubated at 37° C. NO release was measured using the Griess reaction at t=0, 30 minutes, and 3 hours. NO production in this assay was an indication of the hydrolytic instability of the capping group. […] Compounds were dissolved in DMSO and added to rat plasma and then incubated at 37° C. NO release was measured using the Griess reaction at t=0, 30 minutes, and 3 hours. Differences in the amount and rate of NO release reflect the kinetics of hydrolysis of the capping groups by proteases endogenous to the rat plasma. This experiment reflected the ability of compounds to release NO in vivo. For both panels A and B, the compounds tested are labelled as: 506-3-91 is Compound 31, 506-3-159 is Compound 33, 506-3-123 is Compound 32, 506-3-149 is Compound 30, 506-3-117 is Compound 26506-3-121 is Compound 29, 506-3-153 is Compound 27, 506-3-151 is Compound 28, 506-3-145 is Compound 7, 506-3-93 is Compound 10, 506-3-113 is Compound 4, 506-3-111 is Compound 11, 506-3-133 is Compound 12, 506-3-131 is Compound 13, 506-3-81 is Compound 14, 506-3-103 is Compound 18, 506-3-157 is Compound 19, 506-3-115 is Compound 9, 506-3-143 is Compound 6, and 506-3-147 is Compound 8. For all compounds, three time points are shown (left to right for each labelled compound): 0 time point, 30 minutes time point, and 3 hours time point.
Compounds were tested for release of NO in PBS versus rat plasma using the Griess reaction. The Griess reaction works by the colorimetric measurement of nitrite levels which is the primary breakdown product of NO. To determine stability, as well as NO release behavior in a biological environment, the compounds were tested for NO release in both PBS and rat plasma at 37° C. […]
Additional experiments were carried out to test the NO release capability of 100 μM of the compounds in PBS versus Rat Plasma. In these experiments, NO release kinetics was explored by taking readings at 0 minutes, 30 minutes, and 3 hours. The results are shown in FIG. 2, panels A and B. From these studies, the compounds were classified and ranked based on their NO release behavior as shown in the Table below.
For orientation: The Griess reaction detects nitrite, a stable product of nitric oxide.

Data set [2] can be described thus: Stability of the pure compound on storage. Type of data set: physicochemical.
Data set [3] relates to diabetic Lep/r-db/db mice. Description: Initial dose range wound healing study, murine diabetic wound model, PVA gel. Type of data set: in vivo. Here is the method: A murine diabetic wound model for utilized to test the ability of the gel formulation of the invention to accelerate wound healing. Specifically, diabetic Lep/r-db/db mice were used to study the effects of the gel formulation on granulation tissue thickness, density of α-smooth muscle actin-positive myofibroblasts, wound healing kinetics, blood vessel density, cell proliferation, and tissue ingrowth.
An initial dose range study was performed to study the effects of the compounds of the invention on wound healing. Five homozygous diabetic 8-12 weeks old, Lep/r-db/db male mice (strain C57BL/KsJ-Leprdb) were anesthetized with 60 mg/kg pentobarbital and disinfected with 70% alcohol. Subsequently, a 1-cm^2 full-thickness wound was excised on the dorsa of the mice. The mice were then treated with either PVA gel containing no test article (Control), PVA gel containing test article (i.e., compound 506-3-111) at 10 uM concentration, PVA gel containing test article at 50 uM concentration, or PVA gel containing test article at 100 uM concentration. Immediately after wounding, the experimental groups had the NO releasing gel material applied to the wound twice a day and the control group had only the un-medicated gel applied to the wound. Dressing changes were performed twice daily. […]

This note sets out measurements from patent US11148999B2, “Nitric oxide donors” (MedChem Partners, LLC, priority 2016, dated 2021).

With `CCN(CC)/[N+]([O-])=N/OCOC(=O)C(C)(C)NC(=O)OC(C)(C)C` [Compound 506-3-93, (Z)-3-ethyl-10,10,14,14-tetramethyl-9,12-dioxo-6,8,13-trioxa-3,4,5,11-tetraazapentadec-4-ene 4-oxide], the “Release Behavior” value in data set [1] was “slow/low release”.
Regarding `CCN(CC)/[N+]([O-])=N/OCSC` [Compound 506-3-103, (Z)-3,3-diethyl-1-((methylthio)methoxy)triaz-1-ene 2-oxide], the “Release Behavior” value in data set [1] is “slow/low release”.
The same measure, in the same setting: for `C[S+]([O-])CO/N=[N+](\[O-])N1CCCC1CO` (stereo not shown) [Compound 506-3-159, (Z)-1-(2-(hydroxymethyl)pyrrolidin-1-yl)-2-((methylsulfinyl)methoxy)diazene oxide] the value was “slow/low release”; for `CCC(CC)C(=O)OCO/N=[N+](\[O-])N(CC)CC` [Compound 506-3-115, (Z)-3,3-diethyl-1-(((2-ethylbutanoyl)oxy)methoxy)triaz-1-ene 2-oxide], “slow onset”.
Same read-out and setting: for `CCC(CC)C(=O)OCO/N=[N+](\[O-])N1CCCC1CO` (stereo not shown) [Compound 506-3-149, (Z)-2-(((2-ethylbutanoyl)oxy)methoxy)-1-(2-(hydroxymethyl)pyrrolidin-1-yl)diazene oxide] the value was “slow onset”; for `O=C1c2ccccc2C(=O)N1CO/N=[N+](\[O-])N1CCCC1CO` (stereo not shown) [Compound 506-3-91, (Z)-2-((1,3-dioxoisoindolin-2-yl)methoxy)-1-(2-(hydroxymethyl)pyrrolidin-1-yl)diazene oxide], “unstable”; for `CCN(CC)/[N+]([O-])=N/OCN1C(=O)c2ccccc2C1=O` [Compound 506-3-81, (Z)-1-((1,3-dioxoisoindolin-2-yl)methoxy)-3,3-diethyltriaz-1-ene 2-oxide], “unstable”.
As to `CC(C)OC(=O)OCO/N=[N+](\[O-])N1CCCC1CO` (stereo not shown) [Compound 506-3-121, (Z)-1-(2-(hydroxymethyl)pyrrolidin-1-yl)-2-(((isopropoxycarbonyl)oxy)methoxy)diazene oxide], the “Release Behavior” value in data set [1] is recorded as “slow/low release”.
For `CCN(CC)/[N+]([O-])=N/OC[S+](C)[O-]` (stereo not shown) [Compound 506-3-157, (Z)-3,3-diethyl-1-((methylsulfinyl)methoxy)triaz-1-ene 2-oxide], the “Release Behavior” value in data set [1] is reported as “slow/low release”.
For `CCCC(=O)OCO/N=[N+](\[O-])N1CCCC1CO` (stereo not shown) [Compound 506-3-153, (Z)-2-((butyryloxy)methoxy)-1-(2-(hydroxymethyl)pyrrolidin-1-yl)diazene oxide], the “Release Behavior” value in data set [1] is on record as “steady/low”.
The same measure, in the same setting: the value for `O=C(OCO/N=[N+](\[O-])N1CCCC1CO)c1ccccc1` (stereo not shown) [Compound 506-3-151, (Z)-2-((benzoyloxy)methoxy)-1-(2-(hydroxymethyl)pyrrolidin-1-yl)diazene oxide] was “slow onset”.
Turning to `CCCCCCCCCCC(=O)OCO/N=[N+](\[O-])N(CC)CC` [Compound 506-3-111, (Z)-3,3-diethyl-1-((undecanoyloxy)methoxy)triaz-1-ene 2-oxide], the “stability of the pure compound” value in data set [2] is given as “stable for over one year”. Besides, the wound size result in data set [3] (PVA gel with 10, 50, 100 uM test article versus PVA gel alone, applied twice a day, day 7, 1-cm^2 full-thickness wound) is given as “clear dose dependent reduction in wound size”. In addition, the “tolerability (adverse effects or toxicity)” value in data set [3] (PVA gel, 10 to 100 uM, topical twice a day, 7 days) was “well tolerated with no adverse effects or toxicity even at the highest dose”. Also, the “Release Behavior” value in data set [1] is reported as “quick/long release”.
Take `CSCO/N=[N+](\[O-])N1CCCC1CO` (stereo not shown) [Compound 506-3-123, (Z)-1-(2-(hydroxymethyl)pyrrolidin-1-yl)-2-((methylthio)methoxy)diazene oxide]: the “Release Behavior” value in data set [1] is recorded as “slow/low release”.
The same measure, in the same setting: the value for `CCCC(=O)OCO/N=[N+](\[O-])N(CC)CC` [Compound 506-3-143, (Z)-1-((butyryloxy)methoxy)-3,3-diethyltriaz-1-ene 2-oxide] was “intermediate”; that for `CCN(CC)/[N+]([O-])=N/OCOC(=O)[C@@H](NC(=O)OC(C)(C)C)C(C)C` [Compound 506-3-113, (S,Z)-3-ethyl-10-isopropyl-14,14-dimethyl-9,12-dioxo-6,8,13-trioxa-3,4,5,11-tetraazapentadec-4-ene 4-oxide] was “slow onset”; that for `CCN(CC)/[N+]([O-])=N/OCOC(=O)c1ccccc1` [Compound 506-3-145, (Z)-1-((benzoyloxy)methoxy)-3,3-diethyltriaz-1-ene 2-oxide] was “steady”.
On the same count and under the same terms, for `CCN(CC)/[N+]([O-])=N/OC(C)OC(=O)OC(C)(C)C` (stereo not shown) [Compound 506-3-133, (Z)-3-ethyl-7,11,11-trimethyl-9-oxo-6,8,10-trioxa-3,4,5-triazadodec-4-ene 4-oxide] the value was “unstable”; for `CCN(CC)/[N+]([O-])=N/OC(C)OC(=O)OC(C)C` (stereo not shown) [Compound 506-3-131, (Z)-3-ethyl-7,11-dimethyl-9-oxo-6,8,10-trioxa-3,4,5-triazadodec-4-ene 4-oxide], “steady/low”; for `CC(C)(C)C(=O)OCO/N=[N+](\[O-])N1CCCC1CO` (stereo not shown) [Compound 506-3-117, (Z)-1-(2-(hydroxymethyl)pyrrolidin-1-yl)-2-((pivaloyloxy)methoxy)diazene oxide], “steady”.
